According to publication PMC10600239, “Selective MCL-1 inhibitor ABBV-467 is efficacious in tumor models but is associated with cardiac troponin increases in patients” (Communications Medicine, 2023):

Tests used:
Assay in all cases: Off-target profiling (Supplementary Data 1)
[1] = biological target: off-target receptors, ion channels, and transporters (Homo sapiens, UniProt Q07343); settings: read-out: PDE4B2 Human - IC50; Bioprofiling 6pt Antag; cAMP
[2] = biological target: off-target receptors, ion channels, and transporters (Homo sapiens, UniProt P09619); settings: TR-FRET Kinome; Invitrogen A-1169612.6 .025(Subs Conc)
Chain of off-target receptors, ion channels, and transporters (Homo sapiens, UniProt P09619) (P09619 33-1106): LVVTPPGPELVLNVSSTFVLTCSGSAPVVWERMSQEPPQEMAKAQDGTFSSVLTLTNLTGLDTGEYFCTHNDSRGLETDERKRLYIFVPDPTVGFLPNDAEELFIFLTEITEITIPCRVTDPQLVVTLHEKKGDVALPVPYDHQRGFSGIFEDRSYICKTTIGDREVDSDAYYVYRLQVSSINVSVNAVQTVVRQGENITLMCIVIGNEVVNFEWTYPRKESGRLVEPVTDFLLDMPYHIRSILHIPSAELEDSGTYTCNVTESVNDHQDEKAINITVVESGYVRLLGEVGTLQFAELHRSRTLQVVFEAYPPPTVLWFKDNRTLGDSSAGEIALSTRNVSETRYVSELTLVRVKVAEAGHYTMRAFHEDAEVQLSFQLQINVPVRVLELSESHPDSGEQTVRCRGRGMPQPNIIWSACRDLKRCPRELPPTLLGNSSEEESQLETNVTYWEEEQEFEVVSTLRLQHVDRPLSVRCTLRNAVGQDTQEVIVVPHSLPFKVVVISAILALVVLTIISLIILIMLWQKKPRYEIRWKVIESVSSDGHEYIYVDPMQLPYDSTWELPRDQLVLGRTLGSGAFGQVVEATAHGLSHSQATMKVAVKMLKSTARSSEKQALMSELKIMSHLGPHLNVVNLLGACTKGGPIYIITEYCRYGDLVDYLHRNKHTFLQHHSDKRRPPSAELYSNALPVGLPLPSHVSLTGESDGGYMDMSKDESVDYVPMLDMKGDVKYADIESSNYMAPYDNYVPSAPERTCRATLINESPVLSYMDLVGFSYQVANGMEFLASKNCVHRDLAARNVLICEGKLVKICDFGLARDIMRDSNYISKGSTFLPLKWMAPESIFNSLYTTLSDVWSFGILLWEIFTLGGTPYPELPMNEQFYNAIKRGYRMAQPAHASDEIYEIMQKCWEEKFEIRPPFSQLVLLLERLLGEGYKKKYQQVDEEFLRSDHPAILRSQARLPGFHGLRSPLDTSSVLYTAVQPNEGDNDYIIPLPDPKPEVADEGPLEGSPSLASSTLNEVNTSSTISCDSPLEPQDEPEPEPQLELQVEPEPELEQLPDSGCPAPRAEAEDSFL

[3] = biological target: off-target receptors, ion channels, and transporters (Homo sapiens, UniProt P23219); settings: CEREP
[4] = biological target: off-target receptors, ion channels, and transporters (Homo sapiens, UniProt P43405); settings: TR-FRET Kinome; Invitrogen A-1167389.7 .001(Subs Conc)
[5] = biological target: off-target receptors, ion channels, and transporters (Homo sapiens, UniProt P28482); settings: TR-FRET Kinome; Invitrogen A-1224127.6 .05(Subs Conc)
[6] = biological target: off-target receptors, ion channels, and transporters (Homo sapiens, UniProt O00141); settings: TR-FRET Kinome; Millipore A-1213250.2 .03(Subs Conc)
[7] = biological target: off-target receptors, ion channels, and transporters (Homo sapiens, UniProt P50750); settings: TR-FRET Kinome; Invitrogen A-1180691.2 .01(Subs Conc)
[8] = biological target: off-target receptors, ion channels, and transporters (Homo sapiens, UniProt O43293); settings: TR-FRET Kinome; Invitrogen A-1180691.2 .1(Subs Conc)
[9] = biological target: off-target receptors, ion channels, and transporters (Homo sapiens, UniProt P43403); settings: TR-FRET Kinome; SignalChem A-1167389.7 .015(Subs Conc)
[10] = biological target: off-target receptors, ion channels, and transporters (Homo sapiens, UniProt Q9BYT3); settings: TR-FRET Kinome; Invitrogen A-1167389.7 .05(Subs Conc)
Chain of off-target receptors, ion channels, and transporters (Homo sapiens, UniProt Q9BYT3) (Q9BYT3 whole entry): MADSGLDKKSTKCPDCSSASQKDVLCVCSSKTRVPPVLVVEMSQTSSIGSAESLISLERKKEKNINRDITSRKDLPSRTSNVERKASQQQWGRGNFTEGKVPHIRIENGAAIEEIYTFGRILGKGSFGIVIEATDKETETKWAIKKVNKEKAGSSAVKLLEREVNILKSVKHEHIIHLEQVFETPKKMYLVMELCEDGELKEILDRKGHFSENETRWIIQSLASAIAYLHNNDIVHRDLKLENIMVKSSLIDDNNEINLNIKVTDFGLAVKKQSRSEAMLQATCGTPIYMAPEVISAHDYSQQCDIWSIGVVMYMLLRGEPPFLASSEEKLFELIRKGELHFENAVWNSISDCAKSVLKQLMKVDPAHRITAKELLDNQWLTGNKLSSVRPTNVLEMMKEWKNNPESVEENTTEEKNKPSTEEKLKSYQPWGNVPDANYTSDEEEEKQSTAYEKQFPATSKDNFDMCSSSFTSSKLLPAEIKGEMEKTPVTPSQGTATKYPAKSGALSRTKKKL

[11] = biological target: off-target receptors, ion channels, and transporters (Homo sapiens, UniProt Q07912); settings: TR-FRET Kinome; Invitrogen A-1169612.6 .025(Subs Conc)
[12] = biological target: off-target receptors, ion channels, and transporters (Homo sapiens, UniProt P07948); settings: TR-FRET Kinome, SignalChem A-1196581.2 .002(Subs Conc)
Chain of off-target receptors, ion channels, and transporters (Homo sapiens, UniProt P07948) (P07948 2-512): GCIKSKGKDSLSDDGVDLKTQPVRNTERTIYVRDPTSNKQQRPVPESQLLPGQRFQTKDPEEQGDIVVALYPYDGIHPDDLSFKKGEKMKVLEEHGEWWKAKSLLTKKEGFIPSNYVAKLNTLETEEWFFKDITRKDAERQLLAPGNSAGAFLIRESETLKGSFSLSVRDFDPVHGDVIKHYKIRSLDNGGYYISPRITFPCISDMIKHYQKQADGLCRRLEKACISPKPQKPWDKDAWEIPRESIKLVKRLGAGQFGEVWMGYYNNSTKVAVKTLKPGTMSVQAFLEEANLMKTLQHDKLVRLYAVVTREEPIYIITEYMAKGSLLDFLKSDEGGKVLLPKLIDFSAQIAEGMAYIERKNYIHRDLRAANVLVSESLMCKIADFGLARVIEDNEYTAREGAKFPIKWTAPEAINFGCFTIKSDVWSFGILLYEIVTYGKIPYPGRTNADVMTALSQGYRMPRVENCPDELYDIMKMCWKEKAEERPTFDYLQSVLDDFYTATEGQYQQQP

[13] = biological target: off-target receptors, ion channels, and transporters (Homo sapiens, UniProt O43318); settings: TR-FRET Kinome, SignalChem A-1167389.7 .05(Subs Conc)
Chain of off-target receptors, ion channels, and transporters (Homo sapiens, UniProt O43318) (O43318 1-303): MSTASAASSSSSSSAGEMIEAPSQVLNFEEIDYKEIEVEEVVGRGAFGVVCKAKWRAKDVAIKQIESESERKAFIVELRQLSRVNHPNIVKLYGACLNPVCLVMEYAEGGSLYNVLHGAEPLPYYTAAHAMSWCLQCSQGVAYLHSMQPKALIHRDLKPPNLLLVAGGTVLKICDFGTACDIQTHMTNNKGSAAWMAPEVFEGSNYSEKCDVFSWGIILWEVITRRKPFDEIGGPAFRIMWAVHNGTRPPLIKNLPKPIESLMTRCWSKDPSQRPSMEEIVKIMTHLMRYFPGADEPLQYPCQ
Chain of off-target receptors, ion channels, and transporters (Homo sapiens, UniProt O43318) (Q15750 437-504 partner): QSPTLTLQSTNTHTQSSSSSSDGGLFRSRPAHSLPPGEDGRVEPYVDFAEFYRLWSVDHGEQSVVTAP

[14] = biological target: off-target receptors, ion channels, and transporters (Homo sapiens, UniProt P14416)
Chain of off-target receptors, ion channels, and transporters (Homo sapiens, UniProt P14416) (P14416 whole entry): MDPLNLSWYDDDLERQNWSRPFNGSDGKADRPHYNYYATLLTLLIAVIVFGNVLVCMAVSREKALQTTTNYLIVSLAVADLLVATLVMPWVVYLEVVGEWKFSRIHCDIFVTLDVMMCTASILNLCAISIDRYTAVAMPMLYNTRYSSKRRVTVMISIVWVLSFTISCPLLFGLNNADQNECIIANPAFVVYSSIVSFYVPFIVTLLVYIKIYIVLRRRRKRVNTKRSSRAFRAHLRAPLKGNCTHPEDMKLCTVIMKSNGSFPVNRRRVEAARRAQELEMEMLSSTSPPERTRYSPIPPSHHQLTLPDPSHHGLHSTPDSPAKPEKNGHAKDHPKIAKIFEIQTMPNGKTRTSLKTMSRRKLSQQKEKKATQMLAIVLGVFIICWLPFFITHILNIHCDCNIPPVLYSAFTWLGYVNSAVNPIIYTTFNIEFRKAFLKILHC

[15] = biological target: off-target receptors, ion channels, and transporters (Homo sapiens, UniProt P07333); settings: TR-FRET Kinome; Invitrogen A-1167389.7 .004(Subs Conc)
Chain of off-target receptors, ion channels, and transporters (Homo sapiens, UniProt P07333) (P07333 20-972): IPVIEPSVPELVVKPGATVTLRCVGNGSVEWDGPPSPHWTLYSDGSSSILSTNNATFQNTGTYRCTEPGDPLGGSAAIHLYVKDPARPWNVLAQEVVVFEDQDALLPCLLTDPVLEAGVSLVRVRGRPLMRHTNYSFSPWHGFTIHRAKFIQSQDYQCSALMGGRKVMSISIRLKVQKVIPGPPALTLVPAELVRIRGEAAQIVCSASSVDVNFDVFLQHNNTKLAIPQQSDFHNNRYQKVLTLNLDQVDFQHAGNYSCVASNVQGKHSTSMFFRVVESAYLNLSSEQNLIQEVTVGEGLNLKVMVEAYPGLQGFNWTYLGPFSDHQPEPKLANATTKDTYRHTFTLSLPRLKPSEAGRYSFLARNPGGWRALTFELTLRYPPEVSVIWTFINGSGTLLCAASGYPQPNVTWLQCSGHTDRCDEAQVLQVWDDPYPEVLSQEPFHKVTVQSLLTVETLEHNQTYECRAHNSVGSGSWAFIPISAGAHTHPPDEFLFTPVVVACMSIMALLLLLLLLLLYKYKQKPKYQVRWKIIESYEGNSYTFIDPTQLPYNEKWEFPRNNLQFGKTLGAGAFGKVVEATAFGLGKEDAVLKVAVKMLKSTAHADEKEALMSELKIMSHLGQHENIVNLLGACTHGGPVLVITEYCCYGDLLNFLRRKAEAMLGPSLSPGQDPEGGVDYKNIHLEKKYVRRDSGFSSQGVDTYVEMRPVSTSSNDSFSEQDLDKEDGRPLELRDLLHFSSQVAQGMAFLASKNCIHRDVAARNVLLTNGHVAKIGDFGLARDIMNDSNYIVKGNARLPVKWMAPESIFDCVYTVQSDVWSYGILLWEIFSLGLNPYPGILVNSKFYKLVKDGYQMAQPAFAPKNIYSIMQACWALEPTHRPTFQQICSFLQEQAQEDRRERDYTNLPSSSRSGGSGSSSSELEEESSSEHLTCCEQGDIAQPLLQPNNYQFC

[16] = biological target: off-target receptors, ion channels, and transporters (Homo sapiens, UniProt Q02750); settings: TR-FRET Kinome; Invitrogen A-1169612.6 .025(Subs Conc)
[17] = biological target: off-target receptors, ion channels, and transporters (Homo sapiens, UniProt Q12851); settings: TR-FRET Kinome; Invitrogen A-1169612.6 .04(Subs Conc)
[18] = biological target: off-target receptors, ion channels, and transporters (Homo sapiens, UniProt Q13464); settings: TR-FRET Kinome; Invitrogen A-1213250.2 .1(Subs Conc)
[19] = biological target: off-target receptors, ion channels, and transporters (Homo sapiens, UniProt Q96RR4); settings: TR-FRET Kinome; Invitrogen A-1167389.7 .005(Subs Conc)
[20] = biological target: off-target receptors, ion channels, and transporters (Homo sapiens, UniProt Q05397); settings: TR-FRET Kinome; Invitrogen A-1167389.7 .05(Subs Conc)
[21] = biological target: off-target receptors, ion channels, and transporters (Homo sapiens, UniProt P00519); settings: TR-FRET Kinome; Invitrogen A-1196581.2 .007(Subs Conc)
[22] = biological target: off-target receptors, ion channels, and transporters (Homo sapiens, UniProt P30291); settings: TR-FRET Kinome; Carna Biosciences A-1248830.7 .015(Subs Conc)
[23] = biological target: off-target receptors, ion channels, and transporters (Homo sapiens, UniProt P46734); settings: TR-FRET Kinome; Invitrogen A-1224615.7 .2(Subs Conc)
[24] = biological target: off-target receptors, ion channels, and transporters (Homo sapiens, UniProt Q9UM73); settings: TR-FRET Kinome; Millipore A-1167389.7 .05(Subs Conc)
[25] = biological target: off-target receptors, ion channels, and transporters (Homo sapiens, UniProt Q08345); settings: TR-FRET Kinome; Invitrogen A-1196581.2 .003(Subs Conc)
Chain of off-target receptors, ion channels, and transporters (Homo sapiens, UniProt Q08345) (Q08345 19-913): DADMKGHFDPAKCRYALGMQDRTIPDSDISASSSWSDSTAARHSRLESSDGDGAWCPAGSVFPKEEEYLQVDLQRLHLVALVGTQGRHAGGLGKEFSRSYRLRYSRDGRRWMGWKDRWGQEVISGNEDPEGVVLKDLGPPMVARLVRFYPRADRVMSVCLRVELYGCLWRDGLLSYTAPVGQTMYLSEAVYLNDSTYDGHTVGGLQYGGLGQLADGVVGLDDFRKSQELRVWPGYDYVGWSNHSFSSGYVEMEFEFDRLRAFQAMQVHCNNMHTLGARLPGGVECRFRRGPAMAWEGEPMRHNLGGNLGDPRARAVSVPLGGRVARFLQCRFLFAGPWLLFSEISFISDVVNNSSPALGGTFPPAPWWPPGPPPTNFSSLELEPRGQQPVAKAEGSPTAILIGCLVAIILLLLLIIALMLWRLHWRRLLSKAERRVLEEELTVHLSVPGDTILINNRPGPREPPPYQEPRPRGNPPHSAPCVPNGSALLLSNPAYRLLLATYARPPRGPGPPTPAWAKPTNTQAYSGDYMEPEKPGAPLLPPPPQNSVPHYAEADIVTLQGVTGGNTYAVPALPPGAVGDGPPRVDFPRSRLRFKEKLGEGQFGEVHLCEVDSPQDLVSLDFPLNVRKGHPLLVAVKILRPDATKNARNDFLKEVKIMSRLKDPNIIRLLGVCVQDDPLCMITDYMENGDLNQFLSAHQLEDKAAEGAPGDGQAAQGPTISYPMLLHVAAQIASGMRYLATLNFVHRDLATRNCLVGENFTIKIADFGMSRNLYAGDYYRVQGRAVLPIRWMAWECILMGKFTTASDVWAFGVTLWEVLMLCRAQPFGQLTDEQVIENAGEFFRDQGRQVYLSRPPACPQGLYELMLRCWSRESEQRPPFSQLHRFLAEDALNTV

## Cc1c(Cl)c2c(Cl)c(C)c1-c1c(-c3ccc(F)cc3)sc3ncnc(c13)O[C@@H](C(=O)O)Cc1cc(ccc1OCc1ccnc(-c3ccc(OC[C@H]4COCCO4)cc3)n1)OC[C@@H](CN1CCN(C)CC1)O2 [ABBV-467]
[1]
  IC50: > 10 µM
[2]
  PDGFRB - IC50: > 10 µM
[3]
  COX1 Human (Enzymatic Assay) - IC50: 8.6 µM
[4]
  Syk - IC50: > 10 µM
[5]
  Erk2 - IC50: > 10 µM
[6]
  SGK1 - IC50: > 10 µM
[7]
  CDK9/Cyclin K - IC50: 4.24 µM
[8]
  Zipk - IC50: > 10 µM
[9]
  Zap70 - IC50: > 10 µM
[10]
  STK33 - IC50: > 10 µM
[11]
  TNK2 - IC50: > 10 µM
[12]; read-out: LYN-B - IC50
  IC50: > 10 µM
[12]; read-out: LYN-B - Ki
  Ki: > 8.15 µM
[13]; read-out: TAK1-TAB1 - IC50
  IC50: > 10 µM
[13]; read-out: TAK1-TAB1 - Ki
  Ki: > 3.91 µM
[14]; Bioprofiling 6pt Ag
  D2L CHO Human - EC50: > 10 µM
[14]; Bioprofiling 6pt Antag, Quinpirole
  D2L CHO Human - IC50: > 10 µM
[15]
  CSF1R - IC50: > 10 µM
[16]
  MEK1 - IC50: > 10 µM
[17]
  MAP4K2 - IC50: > 10 µM
[18]
  Rock1 - IC50: > 10 µM
[19]
  CAMKK2 - IC50: > 10 µM
[20]
  FAK - IC50: > 10 µM
[21]
  Abl - IC50: > 10 µM
[22]
  Wee1 - IC50: > 10 µM
[23]
  MAP2K3 - IC50: > 10 µM
[24]
  ALK - IC50: > 10 µM
[25]
  DDR1 - IC50: > 10 µM
